From US20250114345A1, “COMPOUNDS AND COMPOSITIONS AS CBP/P300 DEGRADERS AND USES THEREOF” (Oncopia Therapeutics, Inc. d/b/a/ SK Life Science Labs, priority 2023, published 2025)

Legend:
p300 = target: T1, p300 (Homo sapiens, UniProt Q09472); test: P300 degradation, HiBit technology in A549 P300 HiBit cells (2 h); assay type: cell-based; details: 2 hrs post treatment; for Dmax: A549, A549 P300 HiBit cells; for DC50: A549 P300 HiBit cells
T1 construct: host or cells: A549 P300 HiBit cells
Summary of the method: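 Luminescence after lytic HiBiT detection (10 min, room temperature) gave degradation potency and Dmax. Before that, knock-in A549 cells grown overnight in F-12K/10% HI-FBS were exposed to serially diluted compound at 37 °C, 5% CO2 for the assay time stated.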

CBP = target: T2, CBP (Homo sapiens, UniProt Q92793); test: CBP degradation, HiBit technology in A549 CBP HiBit cells (24 h); assay type: cell-based; details: 24 hrs post treatment
T2 construct: host or cells: A549 CBP HiBit cells
Protocol: p300 and CBP degradation potency and Dmax were determined using in cell western (ICW) assay technology in H1299 cells or HiBit technology in A549 HiBit cells.
A549 P300 HiBit and A549 CBP HiBit cells were plated in separate 384-well, TC treated, white-opaque, flat-bottomed microplate. Cells were plated at a cell density of 0.2×10^4 cells per well in assay media comprised of F-12K, 10% heat inactivated FBS, and 1% penicillin/streptomycin. Assay microplates containing HiBit cells were placed in a 37° C., 5% CO2, tissue culture incubator and left to equilibrate overnight. The next day cells were treated with serial dilutions of test compound made up of 10 mM stock solutions in DMSO. 384-Well plates containing treated cells were then placed back into a 37° C., 5% CO2, tissue culture incubator. Assay microplates containing A549 P300 HiBit cells were incubated for 2 hrs post treatment before P300 destruction was assessed, while microplates containing A549 CBP HiBit cells were incubated for 24 hrs post treatment before CBP destruction was determined. On the day of each assay time point, microplates were removed from the tissue culture incubator and prepared HiBit Lytic detection buffer (Promega, cat #N3O40) was added to each plate. Plates were covered with aluminum foil and incubated for ten minutes at room temperature on an orbital shaker. After incubation, luminescent signal of each plate was measured using the Envision instrument (Perkin Elmer).

T2 sequence (Q92793 whole entry): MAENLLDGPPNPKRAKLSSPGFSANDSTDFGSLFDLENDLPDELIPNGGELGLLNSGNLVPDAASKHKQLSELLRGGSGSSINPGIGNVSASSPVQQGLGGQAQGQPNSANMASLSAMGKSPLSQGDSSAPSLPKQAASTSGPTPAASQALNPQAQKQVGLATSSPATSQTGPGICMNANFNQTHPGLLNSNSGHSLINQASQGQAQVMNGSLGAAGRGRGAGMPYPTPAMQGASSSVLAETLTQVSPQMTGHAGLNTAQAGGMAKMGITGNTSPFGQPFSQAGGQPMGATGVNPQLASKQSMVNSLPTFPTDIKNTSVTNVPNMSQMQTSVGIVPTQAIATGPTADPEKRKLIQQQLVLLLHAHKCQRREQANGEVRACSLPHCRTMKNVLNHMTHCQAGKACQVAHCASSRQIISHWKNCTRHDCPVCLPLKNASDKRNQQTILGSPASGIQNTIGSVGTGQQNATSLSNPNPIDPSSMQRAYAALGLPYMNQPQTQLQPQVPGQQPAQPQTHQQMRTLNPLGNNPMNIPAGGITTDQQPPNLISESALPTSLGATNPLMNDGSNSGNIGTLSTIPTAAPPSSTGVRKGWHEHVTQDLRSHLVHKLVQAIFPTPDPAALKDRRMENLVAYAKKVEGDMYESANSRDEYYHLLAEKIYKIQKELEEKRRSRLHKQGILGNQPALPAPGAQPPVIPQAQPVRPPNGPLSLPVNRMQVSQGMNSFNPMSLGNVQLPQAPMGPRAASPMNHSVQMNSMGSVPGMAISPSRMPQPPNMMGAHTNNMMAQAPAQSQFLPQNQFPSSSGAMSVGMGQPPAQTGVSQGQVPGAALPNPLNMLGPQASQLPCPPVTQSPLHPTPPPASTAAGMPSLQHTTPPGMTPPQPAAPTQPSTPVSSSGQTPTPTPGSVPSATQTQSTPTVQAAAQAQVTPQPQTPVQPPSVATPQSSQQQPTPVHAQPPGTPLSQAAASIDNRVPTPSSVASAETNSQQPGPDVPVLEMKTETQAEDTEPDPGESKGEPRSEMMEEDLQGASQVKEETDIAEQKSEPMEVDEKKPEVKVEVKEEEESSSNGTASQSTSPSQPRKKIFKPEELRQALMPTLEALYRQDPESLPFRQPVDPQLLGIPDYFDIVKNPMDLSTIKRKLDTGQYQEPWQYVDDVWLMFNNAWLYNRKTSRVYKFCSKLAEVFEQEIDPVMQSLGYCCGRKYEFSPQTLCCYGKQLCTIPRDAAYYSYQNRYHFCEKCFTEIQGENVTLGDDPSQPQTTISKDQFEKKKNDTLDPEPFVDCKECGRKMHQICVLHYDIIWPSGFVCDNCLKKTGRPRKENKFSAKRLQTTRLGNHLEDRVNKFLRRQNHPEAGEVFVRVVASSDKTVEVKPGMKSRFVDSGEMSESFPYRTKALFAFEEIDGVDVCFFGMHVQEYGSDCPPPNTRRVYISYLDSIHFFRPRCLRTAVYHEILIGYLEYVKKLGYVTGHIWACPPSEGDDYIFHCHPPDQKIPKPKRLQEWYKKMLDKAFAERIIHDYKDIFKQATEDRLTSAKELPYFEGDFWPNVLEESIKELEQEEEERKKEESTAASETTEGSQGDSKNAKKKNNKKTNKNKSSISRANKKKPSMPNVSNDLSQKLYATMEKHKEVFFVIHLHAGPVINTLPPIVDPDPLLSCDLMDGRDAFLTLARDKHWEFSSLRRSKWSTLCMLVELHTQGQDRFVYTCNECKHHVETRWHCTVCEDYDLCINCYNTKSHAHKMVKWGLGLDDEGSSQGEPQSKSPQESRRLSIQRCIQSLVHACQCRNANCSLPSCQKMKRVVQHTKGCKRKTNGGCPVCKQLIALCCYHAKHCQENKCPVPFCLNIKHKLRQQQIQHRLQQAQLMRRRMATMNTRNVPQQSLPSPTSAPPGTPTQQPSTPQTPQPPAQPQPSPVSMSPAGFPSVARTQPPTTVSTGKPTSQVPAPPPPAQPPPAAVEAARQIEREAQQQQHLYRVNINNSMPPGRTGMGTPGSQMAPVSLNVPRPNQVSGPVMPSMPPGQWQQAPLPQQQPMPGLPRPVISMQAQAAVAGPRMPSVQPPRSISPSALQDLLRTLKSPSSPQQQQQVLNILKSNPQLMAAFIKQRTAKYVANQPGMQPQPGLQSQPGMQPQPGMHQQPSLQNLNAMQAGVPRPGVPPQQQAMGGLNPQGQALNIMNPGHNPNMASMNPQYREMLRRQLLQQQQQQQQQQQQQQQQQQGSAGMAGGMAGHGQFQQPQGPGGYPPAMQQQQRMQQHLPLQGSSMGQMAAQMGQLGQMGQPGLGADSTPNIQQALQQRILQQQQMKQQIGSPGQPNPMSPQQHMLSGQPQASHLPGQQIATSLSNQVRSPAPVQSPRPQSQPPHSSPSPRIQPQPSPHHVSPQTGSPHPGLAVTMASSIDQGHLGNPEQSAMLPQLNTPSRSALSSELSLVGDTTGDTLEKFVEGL
T1 sequence (Q09472 whole entry): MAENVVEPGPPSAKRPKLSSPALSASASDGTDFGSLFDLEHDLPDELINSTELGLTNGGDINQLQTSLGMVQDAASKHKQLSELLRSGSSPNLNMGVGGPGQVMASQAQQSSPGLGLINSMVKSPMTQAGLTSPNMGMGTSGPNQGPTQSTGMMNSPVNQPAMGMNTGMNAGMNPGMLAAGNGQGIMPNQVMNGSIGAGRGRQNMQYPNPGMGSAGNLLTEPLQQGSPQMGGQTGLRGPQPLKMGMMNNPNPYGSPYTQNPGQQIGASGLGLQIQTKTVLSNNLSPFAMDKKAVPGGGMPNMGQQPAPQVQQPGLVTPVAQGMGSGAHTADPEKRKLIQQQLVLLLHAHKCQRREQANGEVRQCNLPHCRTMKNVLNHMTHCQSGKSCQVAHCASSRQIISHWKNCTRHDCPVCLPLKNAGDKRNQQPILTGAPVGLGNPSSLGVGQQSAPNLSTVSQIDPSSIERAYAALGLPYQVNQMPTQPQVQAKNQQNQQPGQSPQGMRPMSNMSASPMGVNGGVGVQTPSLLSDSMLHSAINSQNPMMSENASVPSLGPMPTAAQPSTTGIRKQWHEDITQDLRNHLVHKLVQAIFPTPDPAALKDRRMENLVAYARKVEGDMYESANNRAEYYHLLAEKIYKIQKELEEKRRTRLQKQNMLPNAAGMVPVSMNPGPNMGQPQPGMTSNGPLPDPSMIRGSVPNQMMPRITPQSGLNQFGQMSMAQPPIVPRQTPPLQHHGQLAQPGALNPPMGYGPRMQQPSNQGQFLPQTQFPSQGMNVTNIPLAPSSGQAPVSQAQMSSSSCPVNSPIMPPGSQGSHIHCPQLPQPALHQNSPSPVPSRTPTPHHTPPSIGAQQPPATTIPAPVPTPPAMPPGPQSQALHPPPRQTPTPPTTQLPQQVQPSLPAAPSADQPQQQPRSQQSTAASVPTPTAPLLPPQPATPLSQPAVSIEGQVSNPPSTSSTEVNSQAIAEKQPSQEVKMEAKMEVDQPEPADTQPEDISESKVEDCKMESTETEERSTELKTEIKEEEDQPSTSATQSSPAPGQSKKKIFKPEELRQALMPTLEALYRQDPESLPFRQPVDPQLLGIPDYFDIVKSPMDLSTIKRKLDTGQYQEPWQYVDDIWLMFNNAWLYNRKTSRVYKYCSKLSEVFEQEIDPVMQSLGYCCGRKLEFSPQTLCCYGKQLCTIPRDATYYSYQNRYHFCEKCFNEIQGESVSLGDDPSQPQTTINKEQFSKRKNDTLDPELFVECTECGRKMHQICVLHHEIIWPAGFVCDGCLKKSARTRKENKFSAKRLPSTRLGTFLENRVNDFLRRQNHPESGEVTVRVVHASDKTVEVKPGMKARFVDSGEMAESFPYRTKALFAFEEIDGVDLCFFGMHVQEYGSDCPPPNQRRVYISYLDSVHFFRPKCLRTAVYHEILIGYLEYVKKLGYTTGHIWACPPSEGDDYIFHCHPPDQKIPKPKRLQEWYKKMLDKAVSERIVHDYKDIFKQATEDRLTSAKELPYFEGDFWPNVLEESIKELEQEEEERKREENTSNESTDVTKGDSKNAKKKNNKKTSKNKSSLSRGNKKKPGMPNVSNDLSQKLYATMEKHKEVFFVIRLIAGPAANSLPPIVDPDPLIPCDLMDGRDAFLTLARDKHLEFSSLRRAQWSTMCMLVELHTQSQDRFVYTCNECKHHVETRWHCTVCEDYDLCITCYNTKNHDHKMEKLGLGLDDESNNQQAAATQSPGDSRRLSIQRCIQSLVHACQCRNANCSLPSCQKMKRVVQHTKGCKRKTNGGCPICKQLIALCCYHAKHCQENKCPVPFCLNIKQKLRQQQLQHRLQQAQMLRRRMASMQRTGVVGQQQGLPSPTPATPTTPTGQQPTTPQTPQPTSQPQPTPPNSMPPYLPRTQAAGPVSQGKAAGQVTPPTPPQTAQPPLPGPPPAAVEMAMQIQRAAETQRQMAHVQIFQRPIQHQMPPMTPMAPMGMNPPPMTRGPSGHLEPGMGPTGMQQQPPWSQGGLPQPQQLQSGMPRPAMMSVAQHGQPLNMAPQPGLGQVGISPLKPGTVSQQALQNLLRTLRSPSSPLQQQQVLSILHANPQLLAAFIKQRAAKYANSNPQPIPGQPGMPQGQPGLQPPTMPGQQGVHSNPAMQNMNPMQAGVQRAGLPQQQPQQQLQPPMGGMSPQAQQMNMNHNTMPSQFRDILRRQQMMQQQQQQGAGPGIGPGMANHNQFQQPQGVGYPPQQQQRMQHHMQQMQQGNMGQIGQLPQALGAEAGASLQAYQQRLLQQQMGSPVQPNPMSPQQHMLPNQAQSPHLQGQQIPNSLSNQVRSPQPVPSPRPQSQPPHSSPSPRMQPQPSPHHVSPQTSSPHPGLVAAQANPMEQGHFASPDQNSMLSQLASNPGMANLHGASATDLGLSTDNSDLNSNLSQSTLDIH

Row | Structure (SMILES) | Dmax (p300) [%] | DC50 (p300) [nM] | DC50 (CBP) [nM] | Dmax (CBP) [%]
1 | CC(C)c1cc(C2=CC(C)(C)Oc3cc(-c4ccc(C(=O)NCC#Cc5ccc6occ(C7CCC(=O)NC7=O)c6c5)nc4)c(F)cc32)cc2c1n(C)c(=O)n2C (stereo not shown) [Example A57, N-(3-(3-(2,6-dioxopiperidin-3-yl)benzofuran-5-yl)prop-2-yn-1-yl)-5-(6-fluoro-4-(7-isopropyl-1,3-dimethyl-2-oxo-2,3-dihydro-1H-benzo[d]imidazol-5-yl)-2,2-dimethyl-2H-chromen-7-yl)picolinamide] | > 80 | 10 to 99 | > 1000 | < 20
2 | CC(C)c1cc(N2CCOc3cc(-c4ccc(C(=O)NCC#Cc5ccc6occ(C7CCC(=O)NC7=O)c6c5)nc4)ncc32)cc2c1n(C)c(=O)n2C (stereo not shown) [Example A58, N-(3-(3-(2,6-dioxopiperidin-3-yl)benzofuran-5-yl)prop-2-yn-1-yl)-5-(4-(7-isopropyl-1,3-dimethyl-2-oxo-2,3-dihydro-1H-benzo[d]imidazol-5-yl)-3,4-dihydro-2H-pyrido[4,3-b][1,4]oxazin-7-yl)picolinamide] | > 80 | 1 to 9.9 | > 1000 | < 20
3 | Cc1cc(-c2cc3cccc(-c4ccc5c(c4)n(C)c(=O)n5C)c3cn2)cnc1C(=O)NCC#Cc1ccc2occ([C@@H]3CCC(=O)NC3=O)c2c1 [Example A61, (S)-5-(8-(1,3-dimethyl-2-oxo-2,3-dihydro-1H-benzo[d]imidazol-5-yl)isoquinolin-3-yl)-N-(3-(3-(2,6-dioxo-piperidin-3-yl)benzofuran-5-yl)prop-2-yn-1-yl)-3-methylpicolinamide] | > 80 | 1 to 9.9 | > 1000 | < 20
4 | Cc1c(-c2ccc(C(=O)NCC#Cc3ccc4occ(C5CCC(=O)NC5=O)c4c3)nc2)ncc2c(-c3ccc4c(c3)n(C)c(=O)n4C)cccc12 (stereo not shown) [Example A63, 5-(8-(1,3-dimethyl-2-oxo-2,3-dihydro-1H-benzo[d]imidazol-5-yl)-4-methylisoquinolin-3-yl)-N-(3-(3-(2,6-dioxo-piperidin-3-yl)benzofuran-5-yl)prop-2-yn-1-yl)picolinamide] | > 80 | < 1 | 100 to 999 | < 20
5 | Cn1c(=O)n(C)c2c(F)cc(-c3cccc4cc(-c5ccc(C(=O)NCC#Cc6ccc7occ(C8CCC(=O)NC8=O)c7c6)nc5)ncc34)cc21 (stereo not shown) [Example A64, N-(3-(3-(2,6-dioxopiperidin-3-yl)benzofuran-5-yl)prop-2-yn-1-yl)-5-(8-(7-fluoro-1,3-dimethyl-2-oxo-2,3-dihydro-1H-benzo[d]imidazol-5-yl)isoquinolin-3-yl)picolinamide] | > 80 | 1 to 9.9 | > 1000 | < 20
6 | Cc1cc(-c2cc3cccc(-c4cc(F)c5c(c4)n(C)c(=O)n5C)c3cn2)cnc1C(=O)NCC#Cc1ccc2occ(C3CCC(=O)NC3=O)c2c1 (stereo not shown) [Example A66, N-(3-(3-(2,6-dioxopiperidin-3-yl)benzofuran-5-yl)prop-2-yn-1-yl)-5-(8-(7-fluoro-1,3-dimethyl-2-oxo-2,3-dihydro-1H-benzo[d]imidazol-5-yl)isoquinolin-3-yl)-3-methylpicolinamide] | > 80 | 1 to 9.9 | > 1000 | < 20
7 | Cc1cc(N2CCOc3nc(-c4ccc(C(=O)NCC#Cc5ccc6occ(C7CCC(=O)NC7=O)c6c5)nc4)ncc32)cc2c1n(C)c(=O)n2C (stereo not shown) [Example A68, N-(3-(3-(2,6-dioxopiperidin-3-yl)benzofuran-5-yl)prop-2-yn-1-yl)-5-(5-(1,3,7-trimethyl-2-oxo-2,3-dihydro-1H-benzo[d]imidazol-5-yl)-6,7-dihydro-5H-pyrimido [4,5-b][1,4]oxazin-2-yl)picolinamide] | > 80 | 1 to 9.9 | > 1000 | < 20
8 | Cc1cc(-c2cc3cccc(-c4cc5c(c(N6CC7CCC(C6)O7)n4)n(C)c(=O)n5C)c3cn2)cnc1C(=O)NCC#Cc1ccc2occ(C3CCC(=O)NC3=O)c2c1 (stereo not shown) [Example A69, 5-(8-(4-(8-oxa-3-azabicyclo [3.2.1]octan-3-yl)-1,3-dimethyl-2-oxo-2,3-dihydro-1H-imidazo[4,5-c]pyridin-6-yl)isoquinolin-3-yl)-N-(3-(3-(2,6-dioxo-piperidin-3-yl)benzofuran-5-yl)prop-2-yn-1-yl)-3-methylpicolinamide] | > 80 | 1 to 9.9 | > 1000 | < 20
9 | CCN(c1cnc(-c2cnc(C(=O)NCC#Cc3ccc4occ(C5CCC(=O)NC5=O)c4c3)c(C)c2)nc1)c1cc(C(C)C)c2c(c1)n(C)c(=O)n2C (stereo not shown) [Example A70, N-(3-(3-(2,6-dioxopiperidin-3-yl)benzofuran-5-yl)prop-2-yn-1-yl)-5-(5-(ethyl(7-isopropyl-1,3-dimethyl-2-oxo-2,3-dihydro-1H-benzo[d]imidazol-5-yl)amino)pyrimidin-2-yl)-3-methylpicolinamide] | > 80 | 1 to 9.9 | > 1000 | < 20
10 | Cc1ccc(-c2ccc3c(c2)n(C)c(=O)n3C)c2cnc(-c3ccc(C(=O)NCC#Cc4ccc5occ(C6CCC(=O)NC6=O)c5c4)nc3)cc12 (stereo not shown) [Example A72, 5-(8-(1,3-dimethyl-2-oxo-2,3-dihydro-1H-benzo[d]imidazol-5-yl)-5-methylisoquinolin-3-yl)-N-(3-(3-(2,6-dioxopiperidin-3-yl)benzofuran-5-yl)prop-2-yn-1-yl)picolinamide] | > 80 | 1 to 9.9 | > 1000 | < 20
11 | CC(C)c1cc(C2=CC(C)(C)Oc3cc(-c4ccc(C(=O)NCC#Cc5ccc6occ(C7CCC(=O)NC7=O)c6c5)nc4)ncc32)cc2c1n(C)c(=O)n2C (stereo not shown) [Example A75, N-(3-(3-(2,6-dioxopiperidin-3-yl)benzofuran-5-yl)prop-2-yn-1-yl)-5-(4-(7-isopropyl-1,3-dimethyl-2-oxo-2,3-dihydro-1H-benzo[d]imidazol-5-yl)-2,2-dimethyl-2H-pyrano[3,2-c]pyridin-7-yl)picolinamide] | > 80 | 1 to 9.9 | > 1000 | < 20
12 | Cc1cc(-c2ncc3c(n2)CCCN3c2ccc3c(c2)n(C)c(=O)n3C)cnc1C(=O)NCC#Cc1ccc2occ(C3CCC(=O)NC3=O)c2c1 (stereo not shown) [Example A79, 5-(5-(1,3-dimethyl-2-oxo-2,3-dihydro-1H-benzo[d]imidazol-5-yl)-5,6,7,8-tetrahydropyrido[3,2-d]pyrimidin-2-yl)-N-(3-(3-(2,6-dioxo-piperidin-3-yl)benzofuran-5-yl)prop-2-yn-1-yl)-3-methylpicolinamide] | > 80 | 1 to 9.9 | > 1000 | < 20
13 | CC(C)c1cc(C2CC(C)(C)Oc3cc(-c4ccc(C(=O)NCC#Cc5ccc6occ(C7CCC(=O)NC7=O)c6c5)nc4)ncc32)cc2c1n(C)c(=O)n2C (stereo not shown) [Example A83, N-(3-(3-(2,6-dioxo-piperidin-3-yl)benzofuran-5-yl)prop-2-yn-1-yl)-5-(4-(7-isopropyl-1,3-dimethyl-2-oxo-2,3-dihydro-1H-benzo [d]imidazol-5-yl)-2,2-dimethyl-3,4-dihydro-2H-pyrano[3,2-c]pyridin-7-yl) picolinamide] | > 80 | 1 to 9.9 | > 1000 | < 20
14 | Cc1cc(-c2ccc3c(c2)n(C)c(=O)n3C)c2cnc(-c3ccc(C(=O)NCC#Cc4ccc5occ(C6CCC(=O)NC6=O)c5c4)nc3)cc2c1 (stereo not shown) [Example A84, 5-(8-(1,3-dimethyl-2-oxo-2,3-dihydro-1H-benzo[d]imidazol-5-yl)-6-methylisoquinolin-3-yl)-N-(3-(3-(2,6-dioxo-piperidin-3-yl)benzofuran-5-yl)prop-2-yn-1-yl) picolinamide] | > 80 | 10 to 99 | > 1000 | < 20
15 | Cn1c(=O)n(C)c2c(N3CC4CCC(C3)O4)nc(-c3cccc4cc(-c5ccc(C(=O)NCC#Cc6ccc7occ(C8CCC(=O)NC8=O)c7c6)nc5)ncc34)cc21 (stereo not shown) [Example A86, 5-(8-(4-(8-oxa-3-azabicyclo[3.2.1]octan-3-yl)-1,3-dimethyl-2-oxo-2,3-dihydro-1H-imidazo[4,5-c]pyridin-6-yl)isoquinolin-3-yl)-N-(3-(3-(2,6-dioxo-piperidin-3-yl)benzofuran-5-yl)prop-2-yn-1-yl)picolinamide] | > 80 | 1 to 9.9 | > 1000 | < 20
16 | Cc1cc(-c2cc3cccc(-c4cc(C)c5c(c4)n(C)c(=O)n5C)c3cn2)cnc1C(=O)NCC#Cc1ccc2occ(C3CCC(=O)NC3=O)c2c1 (stereo not shown) [Example A87, N-(3-(3-(2,6-dioxo-piperidin-3-yl)benzofuran-5-yl)prop-2-yn-1-yl)-3-methyl-5-(8-(1,3,7-trimethyl-2-oxo-2,3-dihydro-1H-benzo [d]imidazol-5-yl)isoquinolin-3-yl)picolinamide] | > 80 | 1 to 9.9 | > 1000 | < 20
